Test results taken from article PMC9774128, “New Insights into the Mechanism of Antibacterial Action of Synthetic Peptide Mo-CBP3-PepI against Klebsiella pneumoniae” (Antibiotics, 2022).

Columns and labels:
[1] = test system: K. pneumoniae (ATCC 10031); experiment: Antibacterial assay (MIC50); assay type: cell-based, Klebsiella pneumoniae; conditions: against K. pneumoniae; compared with 31.25 µg mL^−1 of Oliveira et al.
Excerpt: The human-pathogenic Gram-negative bacteria K. pneumoniae (ATCC 10031) strain was obtained from the Laboratory of Plant Toxins (LABTOX) of the Federal University of Ceará (UFC).

K. pneumoniae cells [2] = experiment: Cell viability by MTT assay, planktonic cells; assay type: cell-based, Klebsiella pneumoniae; conditions: peptide at MIC50 31.25 μg mL^−1 (Table 1; method says 1 mg mL^−1), MTT 3 h, 37 °C, absorbance 495 nm
Procedure: The cell viability assay was performed as described by Lima et al., with some adjustments. After the antibacterial assay was completed as described by Oliveira et al., the wells containing the treated cells with Mo-CBP3-PepI at 1 mg mL^−1 and control cells (50 µL) were incubated for 3 h in the dark at 37 °C with 50 µL of 3-(4,5-dimethylthiazol-2-yl)-2,5-diphenyltetrazolium bromide (2 mg mL^−1, MTT). After incubation, 100 µL of 100% DMSO was added to the wells, and the plate was slowly shaken to dissolve the formazan crystals. The absorbance was measured using a microplate reader (Epoch, BioTek) with a wavelength of 495 nm. The controls used for this assay were 5% of dimethyl sulfoxide (DMSO) prepared in 0.15 M NaCl (saline) solution and ciprofloxacin (1000 µg mL^−1) prepared in 5% ethanol in sterile saline solution.

K. pneumoniae biofilm = experiment: Antibiofilm assay: inhibition of biofilm formation, crystal violet; assay type: cell-based, Klebsiella pneumoniae; conditions: peptide 31.25 μg mL^−1; 48 h, 37 °C; crystal violet O.D. 600 nm; triplicate, three independent experiments
Procedure: The antibiofilm assay was conducted in flat-bottom 96-well polystyrene microplates as described by Neto et al.. A single colony of K. pneumoniae was collected in stock Petri plates containing inoculated Mueller–Hinton agar. The colony was used as inoculum for 5 mL of Mueller–Hinton broth, and the media was incubated for 24 h in the dark at 37 °C. In sequence, the O.D. of the cell suspension was measured using a microplate reader (Epoch, BioTek) and adjusted to 0.1 at 630 nm with Mueller–Hinton broth. For the inhibition of biofilm formation, 50 µL of the cell ([…]) suspension was incubated with 50 µL of the peptide (31.25 μg mL^−1) solution and 50 µL of the respective controls described above. The incubation lasted for 48 h at 37 °C. For the biofilm degradation assay, 50 µL of the cell suspension was incubated for 24 h at 37 °C. After this, 50 µL of the peptide solution and the respective controls were added to the wells containing the preformed biofilm and incubated for 24 h at 37 °C.
After incubation, both wells of biofilm formation inhibition and biofilm degradation were washed once with a sterile saline solution. Then, the wells were fixated with 100 µL methanol 99% for 15 min. […] Then, the crystals stained on the biofilm were diluted with 200 µL of 33% acetic acid, and the O.D was measured using a wavelength of 600 nm. […]

[3] = test system: K. pneumoniae cell membrane; experiment: Cell membrane integrity by propidium iodide uptake; assay type: cell-based, Klebsiella pneumoniae; conditions: peptide 31.25 µg mL^−1, 24 h
Procedure: The assay was conducted as described by Oliveira et al., with some modifications. Preparation of cell suspension was completed as mentioned above. After, 50 µL of the diluted bacteria solution was incubated in the dark for 24 h, at 37 °C, with 50 µL of the peptide solution (31.25 µg mL^−1) previously prepared with 5% of dimethyl sulfoxide (DMSO) diluted in 0.15 M NaCl solution. The assay was conducted in 1.5 mL microtubes. The diluted bacteria solution was incubated only with the DMSO-NaCl solution for control. After incubation, the microtubes were centrifuged (5000× g, 5 min, 4 °C) and washed three times. Next, the washed cells were incubated with 1 µM propidium iodide for 30 min, in the dark, at 37 °C. After this, the cells were washed two times with saline solution to remove the excess fluorophore and observed with a fluorescence microscope (Olympus System BX 60; excitation wavelength, 488 nm; emission wavelength, […]).

K. pneumoniae cells [4] = experiment: ROS overproduction (DCFH-DA fluorescence microscopy); assay type: cell-based, Klebsiella pneumoniae; conditions: peptide 31.25 µg mL^−1, 24 h, 1 mM DCFH-DA 30 min
Procedure: This assay was conducted in the same way as above but with a few differences. The preparation of cell suspension and the antimicrobial assay was performed in the same way described above. After the three rounds of centrifugation and washes, the cells were incubated with 1 mM 2,7-dichlorofluorescein diacetate (DCFH-DA) for 30 min, in the dark, at 37 °C. After the washes, the cells were also observed under a fluorescence microscope (Olympus System BX60; excitation wavelength, 488 nm; emission wavelength, 525 nm).

[5] = test system: K. pneumoniae (ATCC 10031); design: method as in PMID 30389515; conditions: against K. pneumoniae; cited from earlier work
[6] = design: method as in PMID 30389515; conditions: design feature; cited from earlier work
Excerpt: Synthetic antimicrobial peptides emerged as a solution to solve the problems presented by natural antimicrobial peptides. […] To answer the first question, it is necessary to revert to the design process of Mo-CBP3-PepI.

C. albicans cells = conditions: cited from earlier work
Excerpt: To answer the second question, it is necessary to understand an essential characteristic of antimicrobial peptides, self-association. Self-association is the ability of antimicrobial peptides to interact during the insertion into the membrane, allowing the formation of a huge pore. […] In this model, a peptide interacts with lipids in the membrane, as described above, to perform the insertion into the membrane. Then, the peptide molecules interact between them to form a huge por ...

Sequence: CPAIQRCC [Mo-CBP3-PepI]
- MIC50, experiments repeated here [1]: same results
- Cell Viability (%) (K. pneumoniae cells [2]): 47.54 ± 0.008%
- Inhibition of Biofilm Formation (%) (K. pneumoniae biofilm): 11.87 ± 0.001%
- pore size indicated by movement of PI [3]: 692.50 Da
- membrane pore formation (PI uptake) ([3]; 37 °C, 1 µM PI 30 min, fluorescence microscopy): induced the pore formation
- ROS overproduction (K. pneumoniae cells [4]): slight accumulation of ROS
- MIC50 [5]: 31.25 µg/mL
- hydrophobic ratio [6]: 62%
- net charge [6]: +1
- pore size (C. albicans cells): 10 kDa
